Data published in patent US20090137572A1, “2-substituted-4-heteroaryl-pyrimidines useful for the treatment of proliferative disorders” (priority 2004, published 2009).

Experiments:
[1] = molecular target: GSK3b (Homo sapiens, UniProt P49841); assay: Kinase assay (radioactive phosphate incorporation), GSK-3b; format: biochemical; conditions: read-out: Kinase Inhibition pIC50 GSK-3b (converted)
In short: (§1)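 Inhibition was measured as transfer of radiolabelled phosphate from [γ-32P]-ATP (100 μM ATP, 15 mM MgCl2) onto polypeptide substrates by recombinant kinases or kinase complexes. Reactions ran at 30° C in MOPS/β-glycerophosphate buffer, pH 7.4, were stopped on ice and filtered before scintillation counting.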

[2] = molecular target: CDK2-cyclin A (Homo sapiens, UniProt P24941); assay: Kinase assay (radioactive phosphate incorporation), CDK2-cyclin A; format: biochemical; conditions: read-out: Kinase Inhibition pIC50 CDK2-cyclin A (converted)
In short: as §1

[3] = molecular target: CDK4-cyclin D1 (Homo sapiens, UniProt P11802); assay: Kinase assay (radioactive phosphate incorporation), CDK4-cyclin D1; format: biochemical; conditions: read-out: Kinase Inhibition pIC50 CDK4-cyclin D1 (converted)
In short: as §1

[4] = molecular target: CDK7/cyclin H (Homo sapiens, UniProt P50613); assay: CDK 7 assay (CTD peptide substrate); format: biochemical; conditions: read-out: Kinase Inhibition pIC50 CDK7-cyclin H (converted)
In short: (§2)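 Radiometric filter-binding read-out: 32P transferred from 100 μM [γ-32P]ATP to biotinyl-(YSPTSPS)4 CTD peptide. Enzyme 0.5-2 μg recombinant human complex; 20 mM MOPS pH 7.2, 15 mM MgCl2, vanadate, DTT; 45 min, 30° C; avidin bound, P81 plate washed, counted.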

[5] = molecular target: CDK2-cycline E (Homo sapiens, UniProt P24941); assay: Kinase assay (radioactive phosphate incorporation), CDK2-cyclin E; format: biochemical; conditions: read-out: Kinase Inhibition pIC50 CDK2-cycline E (converted)
In short: as §1

[6] = molecular target: CDK9/cyclin T1 (Homo sapiens, UniProt P50750); assay: CDK 9 assay (CTD peptide substrate); format: biochemical; conditions: read-out: Kinase Inhibition pIC50 CDK9-cyclin T1 (converted)
In short: as §2

[7] = molecular target: CDK1-cyclin B (Homo sapiens, UniProt P06493); assay: Kinase assay (radioactive phosphate incorporation), CDK1-cyclin B; format: biochemical; conditions: read-out: Kinase Inhibition pIC50 CDK1-cyclin B (converted)
In short: as §1

[8] = molecular target: T1, Flt3 (FMS-like tyrosine kinase-3) (Homo sapiens, UniProt P36888); assay: Kinase assay (radioactive phosphate incorporation), Flt3; format: biochemical; conditions: pIC50 is -log(IC50, M), read-out: Kinase Inhibition pIC50 Flt3 (converted)
T1 sequence (P36888 27-993): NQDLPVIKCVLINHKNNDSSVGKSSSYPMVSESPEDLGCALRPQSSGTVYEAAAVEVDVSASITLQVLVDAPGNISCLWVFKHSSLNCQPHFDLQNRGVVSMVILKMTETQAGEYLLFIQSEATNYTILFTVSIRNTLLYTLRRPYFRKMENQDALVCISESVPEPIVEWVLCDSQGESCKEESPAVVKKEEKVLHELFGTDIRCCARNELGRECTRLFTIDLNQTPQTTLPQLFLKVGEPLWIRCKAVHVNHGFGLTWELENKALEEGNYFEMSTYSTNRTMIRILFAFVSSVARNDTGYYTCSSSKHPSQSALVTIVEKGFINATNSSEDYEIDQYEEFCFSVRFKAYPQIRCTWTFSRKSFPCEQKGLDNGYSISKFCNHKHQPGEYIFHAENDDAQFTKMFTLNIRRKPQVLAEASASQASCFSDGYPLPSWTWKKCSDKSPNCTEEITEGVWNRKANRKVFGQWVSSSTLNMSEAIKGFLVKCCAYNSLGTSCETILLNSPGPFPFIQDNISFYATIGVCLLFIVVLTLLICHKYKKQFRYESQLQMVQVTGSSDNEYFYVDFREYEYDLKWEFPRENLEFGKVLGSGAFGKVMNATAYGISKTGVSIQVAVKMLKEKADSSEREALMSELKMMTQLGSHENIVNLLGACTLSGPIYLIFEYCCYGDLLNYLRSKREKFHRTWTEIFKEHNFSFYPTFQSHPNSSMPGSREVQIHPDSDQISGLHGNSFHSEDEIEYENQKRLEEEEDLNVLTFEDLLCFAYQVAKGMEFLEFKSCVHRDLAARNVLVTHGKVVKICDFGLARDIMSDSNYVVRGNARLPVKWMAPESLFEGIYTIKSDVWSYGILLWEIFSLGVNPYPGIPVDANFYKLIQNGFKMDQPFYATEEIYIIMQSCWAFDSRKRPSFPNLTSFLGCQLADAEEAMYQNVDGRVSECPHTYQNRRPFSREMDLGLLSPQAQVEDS
In short: as §1

[9] = molecular target: T2, Aurora A kinase (Homo sapiens, UniProt O14965); assay: Aurora-A (human) kinase assay (Kemptide substrate); format: biochemical; conditions: pIC50 is -log(IC50, M); 15 μM ATP; read-out: Kinase Inhibition pIC50 Aurora A kinase (converted)
T2 construct: purchased
T2 sequence (O14965 1-403): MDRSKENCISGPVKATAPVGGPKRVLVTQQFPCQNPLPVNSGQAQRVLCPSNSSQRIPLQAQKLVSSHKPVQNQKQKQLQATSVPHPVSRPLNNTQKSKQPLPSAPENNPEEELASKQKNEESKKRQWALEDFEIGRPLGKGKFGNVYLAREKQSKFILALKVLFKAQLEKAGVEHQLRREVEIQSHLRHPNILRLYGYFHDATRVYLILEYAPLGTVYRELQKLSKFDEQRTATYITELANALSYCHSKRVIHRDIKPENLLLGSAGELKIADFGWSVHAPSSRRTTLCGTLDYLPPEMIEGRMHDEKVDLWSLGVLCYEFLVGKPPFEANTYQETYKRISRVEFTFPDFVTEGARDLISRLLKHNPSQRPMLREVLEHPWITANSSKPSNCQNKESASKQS
In short: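 Kemptide (LRRASLG, 200 μM) phosphorylation by 5-10 ng commercial aurora-A measured as [γ-33P] incorporation at 15 μM ATP with 10 mM Mg acetate, pH 7.0 MOPS buffer. Reaction ran 40 min at room temperature; acid-stopped, captured on P81 filters, scintillation read.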

Sequence of CDK4-cyclin D1 (P11802 whole entry): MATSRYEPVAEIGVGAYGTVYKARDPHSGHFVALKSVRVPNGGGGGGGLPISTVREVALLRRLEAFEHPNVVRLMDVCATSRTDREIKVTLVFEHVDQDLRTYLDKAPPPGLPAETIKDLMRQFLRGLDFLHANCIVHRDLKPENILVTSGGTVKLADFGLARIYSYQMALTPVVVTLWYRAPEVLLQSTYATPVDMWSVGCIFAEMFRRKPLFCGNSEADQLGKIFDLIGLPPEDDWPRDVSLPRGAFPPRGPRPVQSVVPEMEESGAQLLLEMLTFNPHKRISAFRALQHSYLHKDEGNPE
Sequence of CDK4-cyclin D1 (P24385 whole entry partner): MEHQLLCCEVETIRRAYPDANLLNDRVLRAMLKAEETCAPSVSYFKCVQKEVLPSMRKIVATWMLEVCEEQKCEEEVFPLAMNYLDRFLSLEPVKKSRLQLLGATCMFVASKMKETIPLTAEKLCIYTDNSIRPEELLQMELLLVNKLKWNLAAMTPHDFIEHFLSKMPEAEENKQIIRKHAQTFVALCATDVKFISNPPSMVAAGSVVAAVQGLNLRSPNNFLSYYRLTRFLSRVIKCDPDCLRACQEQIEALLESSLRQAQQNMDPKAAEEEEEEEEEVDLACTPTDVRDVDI
Sequence of CDK9/cyclin T1 (P50750 whole entry): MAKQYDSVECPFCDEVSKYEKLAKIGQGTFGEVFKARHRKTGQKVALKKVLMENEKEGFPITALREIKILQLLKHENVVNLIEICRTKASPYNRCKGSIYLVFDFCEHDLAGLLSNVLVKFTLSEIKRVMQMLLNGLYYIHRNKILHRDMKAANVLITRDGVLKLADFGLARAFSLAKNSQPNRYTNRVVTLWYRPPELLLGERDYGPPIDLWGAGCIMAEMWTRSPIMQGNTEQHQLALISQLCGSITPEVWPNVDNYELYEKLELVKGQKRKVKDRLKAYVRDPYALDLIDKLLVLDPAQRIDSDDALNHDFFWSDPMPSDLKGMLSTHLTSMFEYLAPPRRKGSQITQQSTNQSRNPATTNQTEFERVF
Sequence of CDK9/cyclin T1 (O60563 whole entry partner): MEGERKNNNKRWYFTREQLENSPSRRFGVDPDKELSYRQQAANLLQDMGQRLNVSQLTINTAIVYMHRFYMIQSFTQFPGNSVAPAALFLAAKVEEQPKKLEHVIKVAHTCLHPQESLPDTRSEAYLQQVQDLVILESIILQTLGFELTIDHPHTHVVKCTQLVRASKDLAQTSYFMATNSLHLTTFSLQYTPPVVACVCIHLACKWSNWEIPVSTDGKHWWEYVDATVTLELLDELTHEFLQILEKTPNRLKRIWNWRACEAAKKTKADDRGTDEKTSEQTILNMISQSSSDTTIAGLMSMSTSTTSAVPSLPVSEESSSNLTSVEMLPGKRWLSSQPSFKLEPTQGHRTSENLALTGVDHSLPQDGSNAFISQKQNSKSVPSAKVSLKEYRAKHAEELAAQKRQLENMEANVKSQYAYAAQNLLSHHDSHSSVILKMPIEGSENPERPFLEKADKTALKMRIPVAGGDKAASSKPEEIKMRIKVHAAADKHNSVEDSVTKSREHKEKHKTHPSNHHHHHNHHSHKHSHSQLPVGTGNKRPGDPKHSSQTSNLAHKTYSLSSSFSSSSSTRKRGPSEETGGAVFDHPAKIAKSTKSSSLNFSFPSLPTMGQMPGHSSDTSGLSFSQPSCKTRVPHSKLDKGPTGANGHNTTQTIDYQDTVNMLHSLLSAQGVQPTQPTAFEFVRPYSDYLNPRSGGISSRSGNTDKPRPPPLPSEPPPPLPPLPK
Sequence of CDK1-cyclin B (P06493 whole entry): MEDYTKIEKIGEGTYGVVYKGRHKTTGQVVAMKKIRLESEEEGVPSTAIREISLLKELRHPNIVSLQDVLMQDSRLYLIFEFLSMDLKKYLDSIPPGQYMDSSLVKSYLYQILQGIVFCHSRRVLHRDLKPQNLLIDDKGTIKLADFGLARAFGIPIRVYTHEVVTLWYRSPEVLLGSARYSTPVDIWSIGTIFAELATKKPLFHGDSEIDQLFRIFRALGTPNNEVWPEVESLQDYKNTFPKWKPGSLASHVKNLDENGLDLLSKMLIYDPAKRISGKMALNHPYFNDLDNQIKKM
Sequence of CDK1-cyclin B (P14635 whole entry partner): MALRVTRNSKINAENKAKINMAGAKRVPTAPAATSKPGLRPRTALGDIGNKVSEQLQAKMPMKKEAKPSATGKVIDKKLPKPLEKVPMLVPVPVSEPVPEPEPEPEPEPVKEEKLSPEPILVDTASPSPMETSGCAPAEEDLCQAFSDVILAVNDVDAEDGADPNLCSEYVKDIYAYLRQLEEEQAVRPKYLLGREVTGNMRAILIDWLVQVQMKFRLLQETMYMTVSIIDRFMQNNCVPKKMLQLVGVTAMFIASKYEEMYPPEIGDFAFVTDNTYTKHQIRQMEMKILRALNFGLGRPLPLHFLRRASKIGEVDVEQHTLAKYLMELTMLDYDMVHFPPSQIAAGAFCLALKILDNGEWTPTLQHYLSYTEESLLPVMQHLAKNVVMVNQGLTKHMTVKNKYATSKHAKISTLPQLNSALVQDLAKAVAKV
Sequence of GSK3b (P49841 whole entry, species assumed): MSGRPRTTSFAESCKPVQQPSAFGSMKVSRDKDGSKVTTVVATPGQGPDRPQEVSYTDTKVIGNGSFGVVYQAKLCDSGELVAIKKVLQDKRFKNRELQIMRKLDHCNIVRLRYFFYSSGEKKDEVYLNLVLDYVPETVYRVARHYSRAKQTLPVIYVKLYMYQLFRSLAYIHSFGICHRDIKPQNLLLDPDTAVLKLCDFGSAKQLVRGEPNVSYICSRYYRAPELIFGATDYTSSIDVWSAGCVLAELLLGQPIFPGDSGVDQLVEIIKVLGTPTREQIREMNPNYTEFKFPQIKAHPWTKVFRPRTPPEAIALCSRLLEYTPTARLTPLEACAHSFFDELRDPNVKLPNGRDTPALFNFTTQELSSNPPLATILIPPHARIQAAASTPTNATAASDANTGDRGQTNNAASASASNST
Sequence of CDK7/cyclin H (P50613 whole entry): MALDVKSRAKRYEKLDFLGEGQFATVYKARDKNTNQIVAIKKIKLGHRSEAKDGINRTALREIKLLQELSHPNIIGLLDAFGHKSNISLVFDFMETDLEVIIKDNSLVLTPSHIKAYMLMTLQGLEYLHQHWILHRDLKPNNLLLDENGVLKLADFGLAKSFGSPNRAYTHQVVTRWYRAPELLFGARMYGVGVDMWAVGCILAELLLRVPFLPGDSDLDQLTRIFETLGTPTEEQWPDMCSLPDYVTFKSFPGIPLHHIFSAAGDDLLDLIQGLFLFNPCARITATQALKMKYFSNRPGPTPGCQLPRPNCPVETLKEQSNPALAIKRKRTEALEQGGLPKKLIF
Sequence of CDK7/cyclin H (P51946 whole entry partner): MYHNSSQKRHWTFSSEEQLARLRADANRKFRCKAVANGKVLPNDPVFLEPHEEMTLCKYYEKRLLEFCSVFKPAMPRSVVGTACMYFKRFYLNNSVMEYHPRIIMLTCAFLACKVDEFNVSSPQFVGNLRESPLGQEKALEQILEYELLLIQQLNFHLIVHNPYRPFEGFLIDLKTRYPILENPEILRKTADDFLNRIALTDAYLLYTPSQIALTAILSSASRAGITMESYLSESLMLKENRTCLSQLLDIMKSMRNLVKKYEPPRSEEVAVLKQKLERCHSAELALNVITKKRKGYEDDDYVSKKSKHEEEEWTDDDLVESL

CCNc1nc(C)c(-c2ccnc(Nc3cccc(S(=O)(=O)NCCO)c3)n2)s1 [Compound 75, 3-[4-(2-Ethylamino-4-methyl-thiazol-5-yl)-pyrimidin-2-ylamino]-N-(2-hydroxy-ethyl)-benzenesulfonamide]
IC50 [1]: 794 nM | IC50 [2]: 1260 nM | IC50 [3]: 126 nM | IC50 [4]: 398 nM | IC50 [5]: 200 nM | IC50 [6]: 63.1 nM | IC50 [7]: 1000 nM | melting point: 124 to 125 °C | IC50 [8]: 63.1 nM

CCNc1nc(C)c(-c2ccnc(Nc3cccc(CNS(C)(=O)=O)c3)n2)s1 [Compound 5, N-{3-[4-(2-Ethylamino-4-methyl-thiazol-5-yl)-pyrimidin-2-ylamino]-benzyl}-methanesulfonamide]
IC50 [1]: 200 nM | IC50 [2]: 200 nM | IC50 [3]: 158 nM | IC50 [9]: 31.6 nM | IC50 [4]: 251 nM | IC50 [5]: 158 nM | IC50 [6]: 12.6 nM | IC50 [7]: 1260 nM | IC50 [8]: 50.1 nM

CCNc1nc(C)c(-c2ccnc(Nc3ccc(S(C)(=O)=O)cc3)n2)s1 [Compound 17, [4-(2-Ethylamino-4-methyl-thiazol-5-yl)-pyrimidin-2-yl]-(4-methanesulfonyl-phenyl)-amine]
IC50 [1]: 2000 nM | IC50 [2]: 39.8 nM | IC50 [3]: 1580 nM | IC50 [9]: 39.8 nM | IC50 [4]: 2510 nM | IC50 [5]: 50.1 nM | IC50 [6]: 200 nM | IC50 [7]: 1000 nM | IC50 [8]: 251 nM

CNc1nc(C)c(-c2ccnc(Nc3cccc(S(=O)(=O)NCCO)c3)n2)s1 [Compound 76, N-(2-Hydroxy-ethyl)-3-[4-(4-methyl-2-methylamino-thiazol-5-yl)-pyrimidin-2-ylamino]-benzenesulfonamide]
IC50 [1]: 501 nM | IC50 [2]: 1580 nM | IC50 [3]: 100 nM | IC50 [9]: 39.8 nM | IC50 [4]: 794 nM | IC50 [5]: 316 nM | IC50 [6]: 63.1 nM | IC50 [7]: 1260 nM | melting point: 189 to 190 °C | IC50 [8]: 100 nM

Cc1nc(C)c(-c2ccnc(Nc3cccc(N4CCNCC4)c3)n2)s1 [Compound 8, [4-(2,4-Dimethyl-thiazol-5-yl)-pyrimidin-2-yl]-(3-piperazin-1-yl-phenyl)-amine]
IC50 [1]: 12600 nM | IC50 [2]: 5010 nM | IC50 [3]: 2510 nM | IC50 [9]: 39800 nM | IC50 [4]: 2000 nM | IC50 [5]: 2000 nM | IC50 [6]: 501 nM | IC50 [7]: 5010 nM | IC50 [8]: 50.1 nM

CCNS(=O)(=O)c1cccc(Nc2nccc(-c3sc(N)nc3C)n2)c1 [Compound 30, 3-[4-(2-Amino-4-methyl-thiazol-5-yl)-pyrimidin-2-ylamino]-N-ethyl-benzenesulfonamide]
IC50 [1]: 316 nM | IC50 [2]: 1000 nM | IC50 [3]: 794 nM | IC50 [9]: 15.8 nM | IC50 [4]: 398 nM | IC50 [5]: 100 nM | IC50 [6]: 20 nM | IC50 [7]: 2000 nM | IC50 [8]: 200 nM
